Measured values reported in publication PMC10799935, “Discovery of a peripheral 5HT2A antagonist as a clinical candidate for metabolic dysfunction-associated steatohepatitis” (Nature Communications, 2024).
“And” between values parts separate entries of the source, which are not always exact repeats. Equal values may be shown once. Read-outs that look alike come from different tables or passages of the source.

Legend:
in vitro = conditions: African green monkey
5HT1D = molecular target: T1, 5HT1D (Rattus norvegicus, UniProt P28565); experiment: 5HT subtype antagonism assay (Eurofins Cerep): 5HT1D; assay type: cell-based; conditions: concentration not given
T1 construct: host or cells: CHO cells
Procedure: The derivatives were evaluated at a concentration of 1 μM for their antagonist activity on the 5HT2A receptor (Tables 1–3)[33],[34]. Human 5HT2A stably transfected HEK293 cells (a type of cell derived from kidney embryos)[20] were seeded in a 96-well plate (Costar; 3603) at a density of 9 × 10^4 in 100 μL of minimum essential medium (Welgene; LM007-86) containing 10% dialyzed fetal bovine serum (Gibco; 30067–334) and 1% penicillin/streptomycin (Gibco; 15140-122) and kept in a 37 °C incubator for 24 h. The cells were stained with 100 μL of cytosolic calcium dye using the FLIPR calcium 6 assay solution (Molecular devices, #R8190) supplemented with 2.5 mM probenecid (Sigma; P8761) and incubated for 1 h at 37 °C. After 1 h, the designated amount of the compound was treated in each well and incubated for another 1 h at 37 °C. Then, the cells were loaded in a Flexstation 3 microplate reader (Molecular Devices; FlexStaion) and 50 μL of 5 μM 5HT (serotonin hydrochloride, Sigma; H9523) was injected from a source plate (Nunc 96-well polystyrene conical bottom MicroWell Plate, Thermo; 249662) and the fluorescence intensity (Ex/Em-485nm/ 525 nm) was measured. […]
Antagonism assay Source Stimulus Incubation Measured Detection Method […]

[1] = Pharmacokinetic study in dogs; assay type: in vivo, Beagle dogs; conditions: dog
Procedure: The experimental protocol for this study was approved by the IACUC of KPC Co., Ltd. (No. KPC IACUC-P203046; Beagle dogs) or QuBEST BIO (No.QBIACUC-A20131). All relevant ethical guidelines were followed. Beagle male dogs (11 ~ 20 months old) were purchased from ORIENT BIO Inc. and were housed in the barrier animal facility of KPC Co., Ltd. under a regular light-dark cycle (12-hour light/12-hour dark) at 21.1–23.4°C with 55.3–72.2% humidity. Food (standard irradiated pelleted commercial laboratory diet, Cargill Agri Purina, 300 g/dog.day) and water were provided ad libitum. All study dogs were returned to the laboratory colony after the study without any euthanasia. Sprague-Dawley male rats (7 weeks old) were purchased from SAMTAKOBIOKOREA, Inc. and were housed in the barrier animal facility of Nonclinical Research Center, QuBEST BIO under a regular light-dark cycle (12-hour light/12-hour dark) at 19.7–22.7°C with 54.5–65.6% humidity. Food (standard irradiated pelleted commercial laboratory diet, Purina Rodent Chow, 38057) and water were provided ad libitum. All study rats were euthanized by CO2 gas upon study completion.
Blood samples were collected at the scheduled times up to 24 h post-dose (IV: 0.083, 0.25, 0.5, 1, 2, 4, 8, 12 and 24 h post-dose, PO: 0.25, 0.5, 1, 2, 4, 8, 12 and 24 h post-dose). Determination of compound 11c in plasma was performed by UHPLC-MS/MS. Pharmacokinetic parameters were calculated by noncompartmental analysis using Phoenix® WinNonlin® (Ver. 8.3‘, Certara).

IL-1β = experiment: CDAHFD mice: IL-1β immunohistochemical staining; assay type: in vivo, mouse; set-up: IL-1β immunohistochemical staining (IL1b area), individual mouse / IL-1β immunohistochemical staining (IL1b area), Average: unit not given here; conditions: for IL-1β immunohistochemical staining (IL1b area), Average / IL-1β immunohistochemical staining (IL1b area), individual mouse: CDAHFD mice; for IL-1β immunohistochemical staining (IL1b area), Average: group average n=4, CDAHFD+Vehicle 8.870, Vehicle 2.958; for IL-1β immunohistochemical staining (IL1b area), individual mouse: individual animals No. 1-4 (Fig.4h)
Excerpt: C57BL/6 J male mice were purchased from the Japan SLC. Inc (Hamamatsu, Japan). Mice (5 weeks old) were fed Teklad Certitied Irradiated Global 18% protein rodent diet purchased from Dooyeol Biotech Co. Ltd (Seoul, South Korea) during the acclimation period. The liver fibrosis/inflammation-induced groups were CDAHFD-fed (A06071302, Research diet). […] All animal experiments complied with the relevant ethical regulations.
Mouse liver tissues were fixed in 4% formalin solution (Sigma–Aldrich, St. Louis, MO, USA) and embedded in paraffin. 4-μm-thick liver sections were deparaffinized in xylene, and rehydrated through descending grades of ethanol. To evaluate liver fibrosis, sections were stained with Sirius red solution and subjected to immunohistochemical staining. Tissue sections, after deparaffinization, underwent a 16-hour incubation in a solution containing 0.1% Direct Red 80 (365548, Sigma-Aldrich) dissolved in Picric acid (P-201, Spectrum Chemical, CA, USA) for Sirius red staining. The sections were briefly immersed in a 0.01 N HCl solution (1129, Ducksan, Republic of Korea) for 2 min. and then rinsed with distilled water for destaining. Subsequently, the sections underwent dehydration through […] grades of ethanol. Immunohistochemical staining was performed using the Polyview Plus HRP-DAB (anti-Rabbit) Kit (ENZ-KIT159-0150, ENZO Life Science, NY, USA) following the manufacturers’ instructions. Deparaffinized sections were boiled in IHC-TekTM Epitope Retrieval solution (IW-1100, IHCWORLD, MD, USA) for 45 min., cooled for 1 h, incubated in a 3% H2O2 solution (69355-0350, JUNSEI, Japan) for 15 min., washed, and then incubated overnight with primary antibodies (α-SMA, ab5694, Abcam, 1:500 dilution; TNF-α, ab6671, Abcam, 1:100 dilution and IL-1β, ab9722, Abcam, 1:100 dilution). Subsequently, the sections were treated with Polyview Plus HRP for 2 h and developed with DAB chromogen/substrate. Stained […] sections were confirmed by light microscopy (Olympus BX53 upright microscope, Tokyo, Japan). The degree of hepatic fibrosis and immunohistochemical staining was quantified by morphometric analysis of stained liver sections using NIH ImageJ software.

[2] = male, beagle, plasma, 5 mg/kg, IV (5 mpk)
[3] = male, beagle, plasma, 5 mg/kg, PO (5 mpk)

T1 sequence (P28565 whole entry): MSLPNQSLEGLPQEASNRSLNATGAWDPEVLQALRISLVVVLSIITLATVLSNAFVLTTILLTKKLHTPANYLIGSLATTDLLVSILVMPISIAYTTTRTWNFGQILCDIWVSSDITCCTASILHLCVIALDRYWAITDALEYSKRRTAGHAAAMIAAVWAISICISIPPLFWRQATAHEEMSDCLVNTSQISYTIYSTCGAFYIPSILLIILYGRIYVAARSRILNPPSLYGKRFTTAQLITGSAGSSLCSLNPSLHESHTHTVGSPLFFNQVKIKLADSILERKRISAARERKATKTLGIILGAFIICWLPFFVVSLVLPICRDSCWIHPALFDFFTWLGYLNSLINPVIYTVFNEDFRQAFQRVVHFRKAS

Cc1nc2n(c(=O)c1CCN1CCC(=C3c4ccc(Cl)cc4CCc4cccnc43)CC1)CCCC2O (stereo not drawn) [Compound 11c]
IC50 (in vitro): > 100 µM | Selectivity 1D: % inhibition (5HT1D): 3% | V ([1]; IV (5 mpk)): 4.36 L/kg | bioavailability ([1]; male, beagle, plasma, po, 5 mpk, dogs (summary statement), read-out: oral bioavailability): > 60% | AUC [1, 2]: 16800 ng·h/mL | clearance [1, 2]: 7 mL/min/kg | half-life [1, 2]: 8.6 h | AUC [1, 3]: 19100 ng·h/mL | half-life [1, 3]: 10.2 h | bioavailability ([1]; male, beagle, plasma, 5 mg/kg, PO (5 mpk), read-out: F (%)): 73% | IL-1β immunohistochemical staining (IL1b area), Average (IL-1β; 11c 5 mpk): 4.503 | IL-1β immunohistochemical staining (IL1b area), individual mouse (IL-1β; 11c 5 mpk): 6.500 and 6.265 and 2.688 and 2.559 | IL-1β immunohistochemical staining (IL1b area), Average (IL-1β; 11c 10mpk): 3.142 | IL-1β immunohistochemical staining (IL1b area), individual mouse (IL-1β; 11c 10mpk): 2.228 and 4.531 and 2.370 and 3.440 | IL-1β expression (immunohistochemical staining) (IL-1β; CDAHFD-fed 11c vs CDAHFD-fed vehicle group): significant decrease
